{
  "source": "patent EP4497439A1",
  "about": "“COMPOUNDS FOR THE TREATMENT OR PREVENTION OF GOUT” (Universitat de les Illes Balears, priority 2023, dated 2025)",
  "key": {"[1]": {"assay": "in vitro model of monosodium urate monohydrate (MSU) crystallization: naked eye observation and uric acid remaining in solution (phosphotungstic acid method)", "type": "physicochemical", "set-up": "C100 (minimum concentration that totally prevented the formation of sodium urate crystals): unit not given here", "conditions": "for concentration capable of preventing the formation of MSU crystals (increased uric acid in solution) / C100 (minimum concentration that totally prevented the formation of sodium urate crystals): 5 days (120 h); for effect on the crystallization of MSU (formation of MSU crystals) / solubility of sodium urate in the tested fluid: compound 0.3 mM; for effect on the crystallization of MSU (formation of MSU crystals): uric acid 375 mg/L (2.23 mM), 6 days (144 h) plate images, 4 days uric acid in solution; for effect on the crystallization of MSU (formation of MSU crystals) / solubility of sodium urate in the tested fluid / C100 (minimum concentration that totally prevented the formation of sodium urate crystals): phosphate buffer 12 mM"}, "[2]": {"conditions": "doses of up to 400 mg three times a day; treatment of myopia; cited from earlier work"}, "[3]": {"conditions": "cited from earlier work"}, "[4]": {"conditions": "uric acid 375 mg/L, [Na+] 400 mM, pH 7.4"}},
  "note": "Like-named read-outs stand apart in the source and are kept apart here.",
  "data": [
    {"compound": "Cn1c(=O)[nH]c(=O)c2[nH]cnc21", "note": "[3-methylxanthine]", "values": [
      {"measurement": "concentration capable of preventing the formation of MSU crystals (increased uric acid in solution)", "setting": "[1]; [4]", "result": "≤ 50", "unit": "µM"},
      {"measurement": "effect on the crystallization of MSU (formation of MSU crystals)", "setting": "[1]; [Na+] 400 mM, pH 7.4", "result": "strong inhibition"},
      {"measurement": "solubility of sodium urate in the tested fluid", "setting": "[1]; [4]", "result": "significantly increased"},
      {"measurement": "effects relative to those of 7-methylxanthine", "setting": "[1]; same concentration", "result": "approximately half"}
    ]},
    {"compound": "Cn1c(=O)[nH]c2[nH]c(=O)[nH]c(=O)c21", "note": "[7-methyluric acid]", "values": [
      {"measurement": "effect on the crystallization of MSU (formation of MSU crystals)", "setting": "[1]; [Na+] 400 mM, pH 7.4", "result": "strong inhibition"},
      {"measurement": "solubility of sodium urate in the tested fluid", "setting": "[1]; [4]", "result": "significantly increased"},
      {"measurement": "effects relative to those of 7-methylxanthine", "setting": "[1]; same concentration", "result": "like those of 7-methylxanthine"}
    ]},
    {"compound": "Cn1cnc2[nH]c(=O)[nH]c(=O)c21", "note": "[7-methylxanthine]", "values": [
      {"measurement": "toxicity", "setting": "[2]", "result": "do not present any toxicity"},
      {"measurement": "formation of MSU crystals after 3 days", "setting": "[1]; 50 µM, 100 µM and 150 µM, triplicates, uric acid 375 mg/L, [Na+] 400 mM, pH 7.4, 72 h", "result": "completely prevented"},
      {"measurement": "concentration capable of preventing the formation of MSU crystals (increased uric acid in solution)", "setting": "[1]; [4]", "result": "≤ 50", "unit": "µM"},
      {"measurement": "C100 (minimum concentration that totally prevented the formation of sodium urate crystals)", "setting": "[1]; [UA]0 275 mg/L, [Na+] 400 mM, pH 7.4", "result": 10},
      {"measurement": "C100 (minimum concentration that totally prevented the formation of sodium urate crystals)", "setting": "[1]; [UA]0 300 mg/L, [Na+] 400 mM, pH 7.4", "result": 20},
      {"measurement": "C100 (minimum concentration that totally prevented the formation of sodium urate crystals)", "setting": "[1]; [UA]0 340 mg/L, [Na+] 400 mM, pH 7.4", "result": 40},
      {"measurement": "C100 (minimum concentration that totally prevented the formation of sodium urate crystals)", "setting": "[1]; [UA]0 375 mg/L, [Na+] 400 mM, pH 7.4", "result": 60},
      {"measurement": "C100 (minimum concentration that totally prevented the formation of sodium urate crystals)", "setting": "[1]; [UA]0 400 mg/L, [Na+] 400 mM, pH 7.4", "result": 80},
      {"measurement": "C100 (minimum concentration that totally prevented the formation of sodium urate crystals)", "setting": "[1]; [UA]0 425 mg/L, [Na+] 400 mM, pH 7.4", "result": 100},
      {"measurement": "C100 (minimum concentration that totally prevented the formation of sodium urate crystals)", "setting": "[1]; [UA]0 450 mg/L, [Na+] 400 mM, pH 7.4", "result": 125},
      {"measurement": "effect on the crystallization of MSU (formation of MSU crystals)", "setting": "[1]; [Na+] 400 mM, pH 7.4", "result": "strong inhibition"},
      {"measurement": "solubility of sodium urate in the tested fluid", "setting": "[1]; [4]", "result": "significantly increased"},
      {"measurement": "crystallization inhibition compared with the other methylxanthine", "setting": "[1]; same concentration, 5 days, uric acid 375 mg/L", "result": "significantly higher crystallization inhibition compared to 3-methylxanthine"},
      {"measurement": "concentration that prevents the formation of sodium urate crystals for times longer than 48h", "setting": "[1]; times longer than 48h", "result": "~6", "unit": "mg/L"}
    ]},
    {"compound": "Cn1c(=O)c2c(ncn2C)n(C)c1=O", "note": "[caffeine, 1,3,7-trimethylxanthine, reference compound]", "values": [
      {"measurement": "share metabolized to 7-methylxanthine", "setting": "[3]; administered orally", "result": 8, "unit": "%"},
      {"measurement": "effect on the crystallization of MSU (formation of MSU crystals)", "setting": "[1]; [Na+] 400 mM, pH 7.4", "result": "does not affect"}
    ]},
    {"compound": "Cn1cnc2c1c(=O)[nH]c(=O)n2C", "note": "[theobromine, 3,7-dimethylxanthine, reference compound]", "values": [
      {"measurement": "share metabolized to 7-methylxanthine", "setting": "[3]; in vivo, po", "result": 30, "unit": "%"},
      {"measurement": "effect on the crystallization of MSU (formation of MSU crystals)", "setting": "[1]; [Na+] 400 mM, pH 7.4", "result": "did not show any effect"}
    ]}
  ]
}
